Here are results for 16 molecules from patent publication US20220227737A1, “NOVEL OXALYL PIPERAZINES ACTIVE AGAINST THE HEPATITIS B VIRUS (HBV)” (AiCuris GmbH & Co. KG, priority 2019, published 2022).

Some results are limits rather than exact numbers.

Data set [1] deals with T1, C-terminal truncated core protein (HBV core dimer, BODIPY-FL labelled) (UniProt P03146).
T1 construct: fused on or other part: One added cysteine at position 150, labelled with BODIPY-FL maleimide; The C-terminal arginine-rich domain is absent
T1 sequence (P03146 whole entry, the tested form may be a part): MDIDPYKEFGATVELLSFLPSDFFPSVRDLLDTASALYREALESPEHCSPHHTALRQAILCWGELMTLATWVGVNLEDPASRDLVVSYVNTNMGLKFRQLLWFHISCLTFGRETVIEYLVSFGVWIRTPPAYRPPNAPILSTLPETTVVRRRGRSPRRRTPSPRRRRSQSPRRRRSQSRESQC
The data set is described as follows: Biochemical capsid assembly assay (fluorescence quenching). As for the experimental part: Biochemical Capsid Assembly Assay
The screening for assembly effector activity was done based on a fluorescence quenching assay published by Zlotnick et al. (2007). The C-terminal truncated core protein containing 149 amino acids of the N-terminal assembly domain fused to a unique cysteine residue at position 150 and was expressed in E. coli using the pET expression system (Merck Chemicals, Darmstadt). Purification of core dimer protein was performed using a sequence of size exclusion chromatography steps. In brief, the cell pellet from 1 L BL21 (DE3) Rosetta2 culture expressing the coding sequence of core protein cloned NdeI/XhoI into expression plasmid pET21b was treated for 1 h on ice with a native lysis buffer (Qproteome Bacterial Protein Prep Kit; Qiagen, Hilden). After a centrifugation step the supernatant was precipitated during 2 h stirring on ice with 0.23 g/ml of solid ammonium sulfate. Following further centrifugation the resulting pellet was resolved in buffer A (100 mM Tris, pH 7.5; 100 mM NaCl; 2 mM DTT) and was subsequently loaded onto a buffer A equilibrated CaptoCore 700 column (GE HealthCare, Frankfurt). The column flow through containing the assembled HBV capsid was dialyzed against buffer N (50 mM NaHCO3 pH 9.6; 5 mM DTT) before urea was added to a final concentration of 3M to dissociate the capsid into core dimers for 1.5 h on ice. The protein solution was then loaded onto a 1 L Sephacryl 5300 column. After elution with buffer N core dimer containing fractions were identified by SDS-PAGE and subsequently pooled and dialyzed against 50 mM HEPES pH 7.5; 5 mM DTT. To improve the assembly capacity of the purified core dimers a second round of assembly and disassembly starting with the addition of 5 M NaCl and including the size exclusion chromatography steps described above was performed. From the last chromatography step core dimer containing fractions were pooled and stored in aliquots at concentrations between 1.5 to 2.0 mg/ml at −80° C.
Immediately before labelling the core protein was reduced by adding freshly prepared DTT in a final concentration of 20 mM. After 40 min incubation on ice storage buffer and DTT was removed using a Sephadex G-25 column (GE HealthCare, Frankfurt) and 50 mM HEPES, pH 7.5. For labelling 1.6 mg/ml core protein was incubated at 4° C. and darkness overnight with BODIPY-FL maleimide (Invitrogen, Karlsruhe) in a final concentration of 1 mM. After labelling the free dye was removed by an additional desalting step using a Sephadex G-25 column. Labelled core dimers were stored in aliquots at 4° C. In the dimeric state the fluorescence signal of the labelled core protein is high and is quenched during the assembly of the core dimers to high molecular capsid structures. The screening assay was performed in black 384 well microtiter plates in a total assay volume of 10 μl using 50 mM HEPES pH 7.5 and 1.0 to 2.0 μM labelled core protein. Each screening compound was added in 8 different concentrations using a 0.5 log-unit serial dilution starting at a final concentration of 100 μM, 31.6 μM or 10 μM, In any case the DMSO concentration over the entire microtiter plate was 0.5%. The assembly reaction was started by the injection of NaCl to a final concentration of […] which induces the assembly process to approximately 25% of the maximal quenched signal. […] after starting the reaction the fluorescence signal was measured using a Clariostar plate reader (BMG Labtech, Ortenberg) with an excitation of 477 nm and an emission of 525 nm. As 100% and 0% assembly control HEPES buffer containing 2.5 M and 0 M NaCl was used. Experiments were performed thrice in triplicates. EC50 values were calculated by non-linear regression analysis using the Graph Pad Prism 6 software (GraphPad Software, La Jolla, USA).

A short description of data set [2]: Cell viability assay (AlamarBlue). Conditions: human, HepAD38 cells. In general terms: The colour change of resazurin is a common sign of viable cells or microbes.
Another data set deals with HBV. The data set is described as follows: HBV replication assay: HBV DNA from the supernatants of HepAD38 cells. Conditions: Hepatitis B virus, 144 h, HBV DNA in supernatant at day 6, read-out: Cell Activity. The data set is classed as cell-based. Here is the method: Determination of HBV DNA from the Supernatants of HepAD38 Cells
The anti-HBV activity was analysed in the stable transfected cell line HepAD38, which has been described to secrete high levels of HBV virion particles (Ladner et al., 1997). In brief, HepAD38 cells were cultured at 37° C. at 5% CO2 and 95% humidity in 200 μl maintenance medium, which was Dulbecco's modified Eagle's medium/Nutrient Mixture F-12 (Gibco, Karlsruhe), 10% fetal bovine serum (PAN Biotech Aidenbach) supplemented with 50 μg/ml penicillin/streptomycin (Gibco, Karlsruhe), 2 mM L-glutamine (PAN Biotech, Aidenbach), 400 μg/ml G418 (AppliChem, Darmstadt) and 0.3 μg/ml tetracycline. Cells were subcultured once a week in a 1:5 ratio, but were usually not passaged more than ten times. For the assay 60,000 cells were seeded in maintenance medium without any tetracycline into each well of a 96-well plate and treated with serial half-log dilutions of test compound. To minimize edge effects the outer 36 wells of the plate were not used but were filled with assay medium. On each assay plate six wells for the virus control (untreated HepAD38 cells) and six wells for the cell control (HepAD38 cells treated with 0.3 μg/ml tetracycline) were allocated, respectively. In addition, one plate set with reference inhibitors like BAY 41-4109, entecavir, and lamivudine instead of screening compounds were prepared in each experiment. In general, experiments were performed thrice in triplicates. At day 6 HBV DNA from 100 μl filtrated cell culture supernatant (AcroPrep Advance 96 Filter Plate, […] Supor membran, PALL GmbH, Dreieich) was automatically purified on the MagNa Pure LC instrument using the MagNA Pure 96 DNA and Viral NA Small Volume Kit (Roche Diagnostics, Mannheim) according to the instructions of the manufacturer. EC50 values were calculated from relative copy numbers of HBV DNA In brief, 5 μl of the 100 μl eluate containing HBV DNA were subjected to PCR LC480 Probes Master Kit (Roche) together with 1 μM antisense primer […], 0.5 μM sense primer […], 0.3 μM hybprobes […]-FL and LC640-[…]-PH (TIBMolBiol, Berlin) to a final volume of […]. The PCR was performed on the Light Cycler 480 real time system (Roche Diagnostics, Mannheim) using the following protocol: Pre-incubation for 1 min at 95° C., amplification: 40 cycles×(10 sec at 95° C., 50 sec at 60° C., 1 sec at 70° C.), cooling for 10 sec at 40° C. Viral load was quantitated against known standards using HBV plasmid DNA of pCH-9/3091 (Nassal et al., 1990, Cell 63: 1357-1363) and the LightCycler 480 SW 1.5 software (Roche Diagnostics, Mannheim) and EC50 values were calculated using non-linear regression with GraphPad Prism 6 (GraphPad Software Inc., La Jolla, USA).

For the molecule `C[C@H](O)CNC(=O)C(=O)N1CCN(C(=O)c2cc3c(F)cc(F)cc3[nH]2)CC1` [Example 58, (S)-2-(4-(4,6-difluoro-1H-indole-2-carbonyl)piperazin-1-yl)-N-(2-hydroxypropyl)-2-oxoacetamide], the IC50 in data set [1] is < 5 µM. Further, the CC50 at 6 days in data set [2] was > 100 µM. Also, the EC50 in the data set on HBV is < 1 µM.

Consider `CCCCCCNC(=O)C(=O)N1CCN(C(=O)c2cc3ccccc3[nH]2)CC1` [Example 11, 2-(4-(1H-indole-2-carbonyl)piperazin-1-yl)-N-hexyl-2-oxoacetamide], for which the IC50 in data set [1] was < 5 µM. For the same molecule, the CC50 at 6 days in data set [2] is > 100 µM. Also, the EC50 in the data set on HBV lay in the range of 1 to 10 µM.

In the case of `COC1(CNC(=O)C(=O)N2CCN(C(=O)c3cc4ccccc4[nH]3)CC2)CC1` [Example 13, 2-(4-(1H-indole-2-carbonyl)piperazin-1-yl)-N-((1-methoxycyclopropyl)methyl)-2-oxoacetamide], the IC50 in data set [1] was 5 to 10 µM. Also, the cytotoxic concentration (CC50) at 6 days in data set [2] was > 100 µM. In addition, the EC50 in the data set on HBV is < 1 µM.

As for `O=C(NCc1ccoc1)C(=O)N1CCN(C(=O)c2cc3ccccc3[nH]2)CC1` [Example 10, 2-(4-(1H-indole-2-carbonyl)piperazin-1-yl)-N-(furan-3-ylmethyl)-2-oxoacetamide], the IC50 in data set [1] is < 5 µM. Besides, in data set [2], the CC50 at 6 days was > 100 µM. Besides, the EC50 with HBV was < 1 µM.

In the case of `O=C(NCCO)C(=O)N1CCN(C(=O)c2cc3ccccc3[nH]2)CC1` [Example 3, 2-(4-(1H-indole-2-carbonyl)piperazin-1-yl)-N-(2-hydroxyethyl)-2-oxoacetamide], in data set [1], the IC50 is < 100 µM. Moreover, in data set [2], the CC50 at 6 days is > 100 µM. In addition, the EC50 with HBV fell in the range of 1 to 10 µM.

Consider `O=C(NCCCCCCO)C(=O)N1CCN(C(=O)c2cc3c(F)cc(F)cc3[nH]2)CC1` [Example 56, 2-(4-(4,6-difluoro-1H-indole-2-carbonyl)piperazin-1-yl)-N-(6-hydroxyhexyl)-2-oxoacetamide], for which, in data set [1], the half-maximal inhibitory concentration (IC50) is < 5 µM. The 50% cytotoxic concentration (CC50) at 6 days in data set [2] was > 100 µM. In addition, in the data set on HBV, the EC50 lay in the range of 1 to 10 µM.

In data set [1], `O=C(NC1CCCC1)C(=O)N1CCN(C(=O)c2cc3cccc(Br)c3[nH]2)CC1` [Example 7, 2-[4-(7-bromo-1H-indole-2-carbonyl)piperazin-1-yl]-N-cyclopentyl-2-oxoacetamide] returned an IC50 of 5 to 10 µM. The cytotoxic concentration (CC50) at 6 days in data set [2] was > 100 µM. Moreover, the EC50 in the data set with HBV was < 1 µM.

For the molecule `O=C(NCC1(CO)CC1)C(=O)N1CCN(C(=O)c2cc3ccccc3[nH]2)CC1` [Example 31, 2-(4-(1H-indole-2-carbonyl)piperazin-1-yl)-N-((1-(hydroxymethyl)cyclopropyl)methyl)-2-oxoacetamide], in data set [1], the concentration for half-maximal inhibition (IC50) is 5 to 10 µM. Moreover, the CC50 at 6 days in data set [2] was > 100 µM. Also, in the data set on HBV, the EC50 is < 1 µM.

For the molecule `O=C(NCCCO)C(=O)N1CCN(C(=O)c2cc3c(F)cc(F)cc3[nH]2)CC1` [Example 54, 2-(4-(4,6-difluoro-1H-indole-2-carbonyl)piperazin-1-yl)-N-(3-hydroxypropyl)-2-oxoacetamide], the IC50 in data set [1] was < 5 µM. For the same molecule, in data set [2], the CC50 at 6 days was > 100 µM. For the same molecule, the EC50 with HBV is < 1 µM.

In the case of `CC(O)CNC(=O)C(=O)N1CCN(C(=O)c2cc3ccccc3[nH]2)CC1` (stereo not drawn) [Example 28, 2-(4-(1H-indole-2-carbonyl)piperazin-1-yl)-N-(2-hydroxypropyl)-2-oxoacetamide], the IC50 in data set [1] was < 5 µM. Besides, the half-maximal cytotoxic concentration (CC50) at 6 days in data set [2] was > 100 µM. Also, the EC50 in the data set on HBV is < 1 µM.

For the molecule `C[C@@H](O)CNC(=O)C(=O)N1CCN(C(=O)c2cc3c(F)cc(F)cc3[nH]2)CC1` [Example 64, (R)-2-(4-(4,6-difluoro-1H-indole-2-carbonyl)piperazin-1-yl)-N-(2-hydroxypropyl)-2-oxoacetamide], the 50% inhibitory concentration (IC50) in data set [1] is < 5 µM. In addition, in data set [2], the CC50 at 6 days was > 100 µM. Moreover, the EC50 in the data set on HBV is < 1 µM.

In the case of `CCCCNC(=O)C(=O)N1CCN(C(=O)c2cc3ccccc3[nH]2)CC1` [Example 6, N-butyl-2-[4-(1H-indole-2-carbonyl)piperazin-1-yl]-2-oxoacetamide], the concentration for half-maximal inhibition (IC50) in data set [1] was < 5 µM. Further, the CC50 at 6 days in data set [2] was > 100 µM. The EC50 with HBV is < 1 µM.

As to `O=C(NCCCCCO)C(=O)N1CCN(C(=O)c2cc3c(F)cc(F)cc3[nH]2)CC1` [Example 57, 2-(4-(4,6-difluoro-1H-indole-2-carbonyl)piperazin-1-yl)-N-(5-hydroxypentyl)-2-oxoacetamide], in data set [1], the half-maximal inhibitory concentration (IC50) is < 5 µM. Also, in data set [2], the CC50 at 6 days was > 100 µM. Besides, the EC50 with HBV is 1 to 10 µM.

With `CCC(CCO)CNC(=O)C(=O)N1CCN(C(=O)c2cc3c(F)cc(F)cc3[nH]2)CC1` (stereo not drawn) [Example 59, 2-(4-(4,6-difluoro-1H-indole-2-carbonyl)piperazin-1-yl)-N-(2-ethyl-4-hydroxybutyl)-2-oxoacetamide], the IC50 in data set [1] is < 5 µM. Also, the half-maximal cytotoxic concentration (CC50) at 6 days in data set [2] was > 100 µM. Also, the EC50 with HBV is < 1 µM.

With `O=C(NCC1(CO)CC1)C(=O)N1CCN(C(=O)c2cc3c(F)cc(F)cc3[nH]2)CC1` [Example 55, 2-(4-(4,6-difluoro-1H-indole-2-carbonyl)piperazin-1-yl)-N-((1-(hydroxymethyl)cyclopropyl)methyl)-2-oxoacetamide], the IC50 in data set [1] is < 5 µM. Also, the cytotoxic concentration (CC50) at 6 days in data set [2] was > 100 µM. In addition, in the data set with HBV, the EC50 was < 1 µM.

Take `O=C(NCCCCO)C(=O)N1CCN(C(=O)c2cc3c(F)cc(F)cc3[nH]2)CC1` [Example 62, 2-(4-(4,6-difluoro-1H-indole-2-carbonyl)piperazin-1-yl)-N-(4-hydroxybutyl)-2-oxoacetamide]: the IC50 in data set [1] is < 5 µM. Further, the CC50 at 6 days in data set [2] is > 100 µM. Further, in the data set on HBV, the EC50 was < 1 µM.

By IC50 is commonly meant the concentration needed to halve the response being measured. A low value points to inhibition by little substance. The term CC50 denotes the concentration at which the toxic effect on the cells reaches its halfway point. Low readings indicate harm at low concentration, high ones better tolerance by the cells.
